For one series, the system named is rat tail blood vessels. Description: Distribution within the tail: frozen sections, anti-CD34 staining, CLSM. It is filed as in vivo. How it is done: The slices were imaged by CLSM. The intensity of the Rhd fluorescence was calculated from images using ImageJ.
Series [1] concerns rat tail. Description: In vivo imaging (IVIS) of Rhd fluorescence retention in rat tail after tourniquet release. The settings on record: one hour after tourniquet release, n=4.
Method: For in vivo imaging, the same IVRA procedures were performed, and 0.4 mL of: (i) free Rhd; Rhd-labeled micellar composition comprising bupivacaine; and Rhd-labeled liposomal composition comprising bupivacaine was injected into the tails of rats (n=4) after fastening the tourniquet. Images were taken with an In Vivo Imaging System (PerkinElmer Inc., USA) before releasing the tourniquet, and the signal intensity in those images was considered to be 100%. […] The Rhd signals of each composition were quantified at each time point, and normalized to the intensity before tourniquet release.
Series [2] is described as follows: Bupivacaine concentration in the blood after IVRA and tourniquet release. It is filed as in vivo, rat. As for the experimental part:
The following were administered as IVRA: saline, 0.5% free bupivacaine, 0.1% free bupivacaine, micellar composition comprising bupivacaine (0.1% bupivacaine), and liposomal composition comprising bupivacaine (0.1% bupivacaine). After releasing the tourniquet, 200 microliters of blood was collected (through the tail vein opposite from that through formulations were injected) at 15 minutes, 30 minutes, 45 minutes, 90 minutes, 150 minutes, 240 minutes, 480 minutes and 720 minutes. Blood was put in ethylenediaminetetraacetic acid (EDTA) containing blood collection tubes (BD, USA). The samples were stored in ice water for 10-15 minutes and then centrifuged at 3,000 rpm at 4° C. for 5 minutes to obtain plasma. The hemocytes were lysed by ultrasonication (Sonics & Materials, Inc., USA) at 4° C. for 2 minutes and centrifuged at 13,000 rpm at 4° C. for 5 minutes to obtain a supernatant. The supernatant was combined with plasma. Next, 50 microliters of the blood samples were mixed with 10 microliters of sodium hydroxide aqueous solution (1 M) and 0.3 mL ethyl ether in an ice-water bath. The mixtures were vigorously vortexed for 2 minutes and centrifuged at 3,000 rpm for […] at room temperature. The organic phase was transferred to a 4 mL glass vial and evaporated to dryness in a 4° C. ice-water bath under vacuum. The residue was dissolved in 200 microliters of water-methanol (50/50, v/v), and was mechanically agitated for 30 seconds. The samples were transferred to clean polypropylene tubes and centrifuged at 13,000 rpm for 10 minutes. The supernatant was analyzed by HPLC.

The test system of series [3] is rat tails and organs (heart, liver, spleen, lung, kidney). Nature of the series: Histology (H&E) of tails and organs 24 hours after IVRA. It is filed as in vivo. The settings on record: 0.5% bupivacaine. How it is done:
24 hours after the IVRA procedures, rats that had been administered saline, free bupivacaine (0.5% bupivacaine), micellar composition comprising bupivacaine (0.1% bupivacaine), and liposomal composition comprising bupivacaine (0.1% bupivacaine) were euthanized. Tails and organs (e.g., heart, liver, spleen, lung, and kidney) were harvested and fixed with 10% formalin. The organs were processed by standard procedures to produce hematoxylin and eosin-stained (H&E stained) slides. The tails were decalcified to remove bones before H&B staining procedures. Similar regions were examined in each organ from different groups. Tissues from healthy rats (no treatment) were used as negative controls.

The test system of the next series is HUVECs. Description: Cytotoxicity in HUVECs (MTS cell viability). It is filed as cell-based, human. The settings on record: 0.1 mg/mL free bupivacaine, 24 hours. As for the experimental part:
HUVECs were purchased from ATCC. The cell line was authenticated by the suppliers and passaged in the laboratory for fewer than 3 months after resuscitation. HUVECs were maintained in a 37° C./5% CO2 humidified chamber in Endothelial Cell Growth Medium (EBM-2) (Lonza, USA). When the cells grew to 80% confluence, the cell studies were performed. For cytotoxicity studies, HUVECs were seeded in 96-well plates and incubated with various drug formulations (free bupivacaine, micellar composition comprising bupivacaine, and liposomal composition comprising bupivacaine) for 24 hours. Cell viability was evaluated by CellTiter 96® AQueous One Solution Cell Proliferation Assay (MTS) (Promega, USA) according to suppliers' instructions. The absorbance at 490 nm wavelength was detected with a microplate reader ([…]x, BioTek®, USA). Untreated cells served as a control. Results were shown as the average cell viability [(OD treat OD blank)/(OD control OD blank)×100%] of quintuplicate wells. […] The cells were washed three times with 3 mL of fresh medium and the washing medium was added to the collected incubated medium, the final volume of the collected medium was adjusted to 12 mL and the fluorescence intensity of each medium was measured by fluorescence spectrophotometer (Cary Eclipse, Agilent, USA). […]

Series [4] has as its system rat tail. Nature of the series: Rat tail IVRA (Bier block) assessed by tail-flick test. It is filed as in vivo. As for the experimental part:
In a typical IVRA procedures, the rats were anesthetized with isoflurane-oxygen. The tail vein was cannulated with a 24-gauge IV catheter, which was placed in the distal third of the tail and filled with heparinized saline (BD, USA). The tail was exsanguinated by wrapping it with a rubber strip. An elastic tourniquet was tightly applied proximal to the rubber strip and then the rubber strip was removed. Next, 0.4 mL of formulation was injected by a microinjector (1 mL) through the IV catheter. After releasing the tourniquet, animals were allowed to recover from the isoflurane anesthesia, then rat tail IVRA was assessed by the tail-flick test. In brief, tail-flick latency (the time from onset of radiant heat to tail-flick response) was measured by a tail-flick analgesia meter (Tail-Flick Unit 37370; Ugo Basile, Comerio, Italy). The intensity of radiant heat (parameter of the analgesia meter) was set at 90%, and cut-off time of radiant heat was set at 18 seconds. The testing area was between the injection site in the distal tail and the tourniquet, in the proximal tail. Baseline tail-flick latency was measured in untreated and saline injected rats. All evaluations were performed by two trained observers blinded to group allocation.
In general terms: In hot-plate and tail-flick tests a longer latency is read as antinociception.

Setting [5] is: 0.4 mL of 0.5% bupivacaine by IVRA, tourniquet time 5 min.
[6] abbreviates: 0.4 mL of 0.5% bupivacaine by IVRA, tourniquet time 10 min.
[7] abbreviates: 0.4 mL of 0.5% bupivacaine by IVRA, tourniquet time 15 min.
Setting [8] is: 0.4 mL of 0.5% bupivacaine by IVRA, tourniquet time 20 min.
Setting [9] is: 0.4 mL of 0.5% bupivacaine by IVRA, tourniquet time 30 min.
[10] abbreviates: bupivacaine concentration 0.1% w/v, 0.4 mL, 15 minute tourniquet.
[11] abbreviates: bupivacaine concentration 0.5% w/v, 0.4 mL, 15 minute tourniquet.

Several values for one entry are separate records, joined by “and”; a condition that tells them apart may be missing. Identical values can stand only once.

Take rhodamine [free Rhd]: the entries for the “Rhd signal in tail sections (fluorescence microscopy)” value in the series with rat tail blood vessels (15 minutes after release of the tourniquet) and in the series with rat tail blood vessels (four hours after release of the tourniquet) were “very strong Rhd signals co-localized with blood vessel” and “much weaker than at 15 minutes”, respectively. Also, in the series on rat tail [1], the “fluorescence intensity in the rat tail, % of intensity before tourniquet release” value is recorded as about 50%.

In the case of `CCCCN1CCCCC1C(=O)Nc1c(C)cccc1C` (centres unmarked) [Free bupivacaine, bupivacaine], in series [2] (0.5% free bupivacaine by IVRA, rats), the mortality entry is given as “none died”. The “clinical observation after tourniquet release” value in series [2] (rat, in vivo) is recorded as “dyspnea”. Further, the “time of peak bupivacaine concentration in blood” value in series [2] (rat, in vivo) amounted to 45 min. Moreover, in series [3], the “histology of heart, liver, spleen, lung and kidney (H&E)” value is reported as “no histological abnormalities”. For the same molecule, the “tail myotoxicity (H&E)” value in series [3] was “no myotoxicity”. Also, the cells alive with HUVECs is listed as 22.1+/−2.4%. In addition, the “anesthetic effect (tail-flick)” value in the series on rat tail [4] (0.1% bupivacaine, comparable to saline) is “did not achieve any anesthetic effect”. In addition, the “Anesthesia Duration” value with rat tail [4] (setting [5]) is 0 h; in the series on rat tail [4] (setting [6]), 0.3 ± 0.5 h; in the series with rat tail [4] (setting [7]) it was 2 h and 2.0 ± 0.6 h; with rat tail [4] (setting [8]), 1.9 ± 0.5 h; in the series with rat tail [4] (setting [9]) it was 2.0 ± 0.5 h; with rat tail [4] (setting [10]), 0 h. For the same molecule, the “Anesthesia Duration” value in the series with rat tail [4] (setting [11]) was 2.0 ± 0.6 h; in the series on rat tail [4] (bupivacaine concentration 0.5% w/v, 0.4 mL, 15 minute tourniquet, listed as free bupivacaine), 2.0 ± 0.6 h. For the same molecule, the “Successful Anesthesia (%)” value in the series with rat tail [4] (setting [5]) was determined as 0%; with rat tail [4] (setting [6]), 25%; with rat tail [4] (setting [7]), 100%; in the series with rat tail [4] (setting [8]), 100%; in the series with rat tail [4] (setting [9]) it was 100%; in the series with rat tail [4] (setting [10]) it was 0%. In the series on rat tail [4] (setting [11]), the “Successful Anesthesia (%)” value was 100%. Further, the animals with anesthesia result in the series with rat tail [4] (0.4 mL of 0.5% bupivacaine by IVRA, tourniquet time 15 minutes) is “four of four”.

The values are drawn from patent US20260000608A1, “COMPOSITIONS AND METHODS FOR ADMINISTERING ANESTHETICS” (Children's Medical Center Corporation, priority 2018, published 2026).
